The source of these data is PubChem BioAssay (NCI).

Values joined by “and” are separate entries in the source; they are usually repeats but may differ in a detail not shown here. Equal values may be shown once.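 96-well plates; 48 h exposure; 5 concentrations. Endpoints by linear interpolation between flanking doses. Not reached: highest tested concentration assigned. At the GI50, growth is halved. TGI is the concentration that stops growth completely.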

Some test systems named below: SNB-19 CNS; KM12 colon; CAKI-1 renal; SF-295 CNS; SR leukemia; A549 NSCLC; BT-549 breast; DU-145 prostate; HCC-2998 colon; OVCAR-4 ovarian.
Holding throughout (experiment): growth of human tumour cells (NCI), 48 h

With `C/C1=C\C/C=C(\C)[C@H]2CC(CC/C(C)=C/CC1)[C@@](C)(CO)O2`, the GI50 in the assay with SNB-19 CNS was over 100 µM; in the assay on KM12 colon, 62.7 µM; in the assay with CAKI-1 renal it was 44.9 µM; in the assay with SF-295 CNS, 59.3 µM; in the assay on SR leukemia, 14.6 µM; in the assay with A549 NSCLC it was over 100 µM. The GI50 with BT-549 breast, in the assay with DU-145 prostate, with HCC-2998 colon and in the assay with OVCAR-4 ovarian was over 100 µM throughout. The TGI in the assay with SNB-19 CNS is over 100 µM; in the assay with KM12 colon, over 100 µM; in the assay on CAKI-1 renal, over 100 µM; in the assay on SF-295 CNS, over 100 µM; with SR leukemia it was 43.8 µM; with A549 NSCLC, over 100 µM. In addition, the TGI with BT-549 breast, in the assay with DU-145 prostate, with HCC-2998 colon and in the assay on OVCAR-4 ovarian was over 100 µM throughout.
For `CC1(C)CC(=O)c2c(ccc(C(=O)C[C@H](N)CO)c2N)O1`, the GI50 in the assay on SNB-19 CNS is 5.07 µM and 1.41 µM; in the assay on KM12 colon, 1.23 µM and 0.189 µM; in the assay on CAKI-1 renal, 3.27 µM and 0.447 µM; with SF-295 CNS it was 5.66 µM and 3.65 µM; in the assay with SR leukemia, 0.612 µM and 0.0752 µM; in the assay with A549 NSCLC it was 7 µM and 7.1 µM. The GI50 with BT-549 breast was 6.44 µM and 2.87 µM; in the assay with OVCAR-4 ovarian, over 33.3 µM. The TGI in the assay on SNB-19 CNS is 17.5 µM and > 33.3 µM; with KM12 colon, 17.5 µM and > 33.3 µM; with CAKI-1 renal, 17.5 µM and 6.03 µM; with SF-295 CNS, 17.5 µM and > 33.3 µM; in the assay with A549 NSCLC, 17.5 µM and > 33.3 µM; with BT-549 breast it was 17.5 µM and 25.4 µM. Further, the TGI is 17.5 µM and > 33.3 µM in the assay on DU-145 prostate; 17.5 µM and 12 µM in the assay on HCC-2998 colon; over 33.3 µM with OVCAR-4 ovarian.
Take `CC1(O)CC2(O)C=CC3=C(C(=O)c4cccc(O)c4C3=O)C2(O)C(=O)C1O` (configuration not stated): the TGI in the assay with SNB-19 CNS turned out to be 30.4 µM; in the assay with KM12 colon, 17.8 µM; in the assay with CAKI-1 renal, 2.24 µM; in the assay on SF-295 CNS, 26.7 µM; with SR leukemia, 18.1 µM; in the assay with A549 NSCLC, 25.3 µM. For the same compound, the TGI came out at 2.58 µM in the assay on BT-549 breast, 32.3 µM in the assay on DU-145 prostate, 7.54 µM with HCC-2998 colon and 2.86 µM in the assay on OVCAR-4 ovarian.
In the case of `CN1CCN(Cc2ccc(NC(=O)c3nc4ccc5[nH]ncc5c4c4c3CCC4)cc2C(F)(F)F)CC1`, the GI50 in the assay on SNB-19 CNS was 0.976 µM; in the assay on KM12 colon it was 0.957 µM; in the assay with CAKI-1 renal, 0.815 µM; with SF-295 CNS, 6.97 µM; with SR leukemia, 1.1 µM; in the assay on A549 NSCLC it was 0.92 µM. The GI50 was 7.61 µM with BT-549 breast, 0.944 µM in the assay with DU-145 prostate, 0.83 µM in the assay on HCC-2998 colon and 0.911 µM with OVCAR-4 ovarian. Further, the TGI in the assay with SNB-19 CNS came to 2.11 µM; in the assay with KM12 colon, 1.91 µM; in the assay on CAKI-1 renal it was 1.56 µM; in the assay with SF-295 CNS, 13.8 µM; in the assay on SR leukemia, 2.68 µM; in the assay with A549 NSCLC it was 1.83 µM. Further, the TGI in the assay with BT-549 breast turned out to be 14.9 µM; in the assay on DU-145 prostate it was 1.76 µM; in the assay with HCC-2998 colon it was 1.65 µM; with OVCAR-4 ovarian, 1.98 µM.
Turning to `NC(CSc1nc2ccccn2c1[N+](=O)[O-])C(=O)O` (configuration not stated), the TGI with SNB-19 CNS, in the assay with KM12 colon, in the assay on CAKI-1 renal, in the assay with SF-295 CNS, with SR leukemia and with A549 NSCLC was over 100 µM throughout. Besides, the TGI in the assay with BT-549 breast, in the assay on DU-145 prostate, in the assay with HCC-2998 colon and in the assay with OVCAR-4 ovarian was over 100 µM throughout.
Regarding `O=C(O)CCCSc1nc2ccccc2s1`, the TGI in the assay on SNB-19 CNS, in the assay on KM12 colon, in the assay on CAKI-1 renal, in the assay on SF-295 CNS, in the assay with SR leukemia and in the assay with A549 NSCLC was over 100 µM throughout. Besides, the TGI in the assay with BT-549 breast, with DU-145 prostate, with HCC-2998 colon and with OVCAR-4 ovarian was over 100 µM throughout.
`O=C(NNc1ccccc1)OCc1ccccc1`: the GI50 in the assay with SNB-19 CNS was 63.9 µM; in the assay on KM12 colon it was 3.92 µM; with CAKI-1 renal, 1.02 µM; in the assay with SF-295 CNS, 2.81 µM; with SR leukemia it was 41.3 µM; in the assay on A549 NSCLC it was 9.18 µM. The GI50 is 16.6 µM in the assay on BT-549 breast, 75.5 µM in the assay on DU-145 prostate, 17.6 µM in the assay on HCC-2998 colon and 18.6 µM with OVCAR-4 ovarian. Further, the TGI was over 100 µM in the assay with SNB-19 CNS; over 100 µM with KM12 colon; 14.2 µM with CAKI-1 renal; 28.2 µM in the assay with SF-295 CNS; over 100 µM in the assay with SR leukemia; over 100 µM in the assay with A549 NSCLC. Also, the TGI was 85.5 µM in the assay with BT-549 breast, over 100 µM in the assay with DU-145 prostate, over 100 µM in the assay on HCC-2998 colon and over 100 µM in the assay with OVCAR-4 ovarian.
As for `ClC1=NC(Cl)C(Cl)=N/C1=N\c1ncn[nH]1` (configuration not stated), the GI50 in the assay with SNB-19 CNS is 11.8 µM; in the assay on KM12 colon it was 2.27 µM; in the assay with CAKI-1 renal, 1.78 µM; in the assay with SF-295 CNS, 13.4 µM; with SR leukemia, 1.3 µM; with A549 NSCLC, 17.1 µM. Moreover, the GI50 was 2.45 µM in the assay with BT-549 breast, 1.9 µM with DU-145 prostate, 2.17 µM in the assay on HCC-2998 colon and 1.89 µM in the assay with OVCAR-4 ovarian. The TGI with SNB-19 CNS amounted to 25.4 µM; in the assay with KM12 colon, 4.79 µM; in the assay on CAKI-1 renal, 3.32 µM; in the assay on SF-295 CNS, 28.5 µM; with SR leukemia, 3.63 µM; in the assay with A549 NSCLC, 34.4 µM. The TGI with BT-549 breast came to 5.42 µM; in the assay on DU-145 prostate, 3.43 µM; in the assay with HCC-2998 colon, 4.28 µM; with OVCAR-4 ovarian, 3.61 µM.
Regarding `CCN(C(=O)CCl)C(C)(C)C(SSSC(c1ccc(Cl)cc1)C(C)(C)N(CC)C(=O)CCl)c1ccc(Cl)cc1` (configuration not stated), the GI50 is 13.9 µM in the assay on SNB-19 CNS; 10.3 µM in the assay with KM12 colon; 4.09 µM in the assay on CAKI-1 renal; 2.99 µM in the assay on SF-295 CNS; 2.32 µM with SR leukemia; 15 µM with A549 NSCLC. Also, the GI50 with BT-549 breast is 10.3 µM; in the assay with DU-145 prostate it was 11.5 µM; in the assay with HCC-2998 colon, 11.1 µM; in the assay with OVCAR-4 ovarian, 5.04 µM. Further, the TGI with SNB-19 CNS worked out at 30.3 µM; with KM12 colon, 23 µM; with CAKI-1 renal it was 15.4 µM; in the assay on SF-295 CNS, 8.93 µM; with SR leukemia, 5.15 µM; in the assay on A549 NSCLC, 31.1 µM. The TGI in the assay with BT-549 breast is 23 µM; with DU-145 prostate, 24.2 µM; in the assay on HCC-2998 colon, 26.6 µM; in the assay with OVCAR-4 ovarian, 19.6 µM.
